Test results from patent US20250304526A1, “HIGH AND MULTIPLE REDOX POTENTIAL, STABLE, AND SOLUBLE BIS-DIARYLAMINE DERIVATIVES AND USES THEREOF” (University of Kentucky Research Foundation, priority 2024, published 2025).
≈ marks a conversion by molar mass, not a printed value. Where two headings read alike, the source gives them in different places.

Tests used:
Assay type in all cases: physicochemical
[1] = UV-NIR spectroscopy of radical cations (IVCT band, Hush analysis); conditions: for ν1/2, Hush (Hush-theory predicted band width): predicted from νmax at 298 K; for ν1/2 (measured IVCT band width) / νmax (IVCT band): radical cation, 0.5 mM in pure CH3CN
Protocol: (§1) In an argon-filled glove box, 0.5 mM solutions of neutral and radical cation were prepared in acetonitrile and pipetted into 1 mm path length optical glass cuvettes. The choice of this path length of cuvette is dictated by the aim to prevent the UV-vis detector saturation of the intensely colored cationic species. All samples destined to UV-vis stability monitoring contained 0.1 M TBAPF6 whereas UV-NIR samples were in pure CH3CN. Solutions were added to the cuvettes inside an argon filled glovebox, sealed with a Teflon screw cap and removed from the glovebox for spectral analysis. UV-vis spectra were collected in an Agilent 8453 diode-array spectrometer. Spectra were collected at 0, 1, 3, 4, 5, 6 and 24 h after dissolution.
The synthesized cations were also characterized using UV-NIR spectroscopy (FIG. 3). From FIG. 3 it can be clearly seen that the spectra of the charged forms change dramatically as compared to the neutral forms. […] These values match perfectly to those reported by Lambert and Noll for the same molecules using spectroelectrochemistry in 0.1 M TBAPF6 in dichloromethane.^21
Class II or III assignment is based on electronic spectroscopy; the broadness and line shape of the IVCT transition is analyzed in this case. Analysis of the line broadness and line shape of the IVCT band is also used to determine whether a mixed-valence species belongs to Class II or III. Hush theory provides a relationship that simplifies at 298 K to:
where vmax is the maximum absorption of the IVCT band given in […].

[2] = Solubility determination in pure acetonitrile by mass measurement
Protocol: The solubility of the compounds in pure acetonitrile was determined by the mass measurement method described previously. Saturated solutions of each compound were prepared and filtered to remove any undissolved material. Afterwards, 3 mL of each solution were taken and added to previously weighed vials (the measurement was repeated three times for each solution, i.e. 3 vials for each solution). The vials were then stored open in a nitrogen-filled glove box to allow the slow evaporation of the solvent. After 10 days, acetonitrile was evaporated from all vials, leaving only the previously dissolved solid. The vials were then re-weighed and the mass of the solid was determined by subtracting the mass of the respective empty vial. The concentration of the compound was calculated from the mass of the dissolved solid and the volume of the sample placed into the vial.
The solubilities of 1-4 were examined in pure CH3CN using the mass measurement method.

[3] = Cyclic voltammetry (redox potentials, diffusion coefficients); conditions: 1 mM in 0.2M TBAPF6/CH3CN; for D (diffusion coefficient): Randles-Sevcik equation
[4] = Stability via UV-vis spectroscopy over 24 h; conditions: 0.5 mM in 0.1 M TBAPF6/CH3CN
Protocol: as §1
UV-vis spectroscopy provides a means to monitor the stabilities of the radical cations over prolonged time scales that extend beyond that offered by CV. This is possible since all the charged forms show absorption features in the UV and visible regions, which enables monitoring of the change of concentrations over the course of time, based on changes in peak intensities.
The radical cation samples were prepared in 0.1 M TBAPF6/CH3CN inside an argon-filled glovebox and transferred into sealed cuvettes to prevent contact with atmospheric moisture/air when taken outside the glovebox. […]
The neutral samples of each molecule were also monitored for the sake of comparison. […]

[5] = organic solvent or mixture, thermodynamic from solid, read-out: Solubility

SMILES	ν1/2, Hush (Hush-theory predicted band width) [1]	ν1/2 (measured IVCT band width) [1]	νmax (IVCT band) [1]	νmax (IVCT band) ([1]; listed as 1^⋅)	solubility [2]	solubility [2, 5]	E^o′1 (first redox potential) [3]	E^o′2 (second redox potential) [3]	ΔE (E^o′2 − E^o′1) [3]	D (diffusion coefficient) [3]	Stability of radical cation UV-vis absorption spectrum [4]
COc1ccc(N(c2ccc(OC)cc2)c2ccc(N(c3ccc(OC)cc3)c3ccc(OC)cc3)cc2)cc1 [1^+⋅]	4756 cm⁻¹	3846 cm⁻¹	9790 cm⁻¹	~10000 cm⁻¹	8.76 mM (≈ 4670 µg/mL)	9 mM (≈ 4790 µg/mL)	0.00 V vs Cp2Fe^0/+	0.38 V vs Cp2Fe^0/+	0.38	4.49 10^−6 cm^2 · s^−1	
COc1ccc(N(c2ccc(OC)cc2)c2ccc(-c3ccc(N(c4ccc(OC)cc4)c4ccc(OC)cc4)cc3)cc2)cc1 [2^+⋅]	4740 cm⁻¹	3524 cm⁻¹	9728 cm⁻¹			3.5 mM (≈ 2130 µg/mL)	0.17 V vs Cp2Fe^0/+	0.33 V vs Cp2Fe^0/+	0.16	1.81 10^−6 cm^2 · s^−1	
Cc1ccc(C(F)(F)F)cc1N(c1ccc(N(c2cc(C(F)(F)F)ccc2C)c2cc(C(F)(F)F)ccc2C)cc1)c1cc(C(F)(F)F)ccc1C [3^+⋅]	5448 cm⁻¹	4018 cm⁻¹	12849 cm⁻¹		13.34 mM (≈ 9880 µg/mL)	13 mM (≈ 9630 µg/mL)	0.41 V vs Cp2Fe^0/+	0.91 V vs Cp2Fe^0/+	0.50	7.67 10^−6 cm^2 · s^−1	very subtle changes
Cc1ccc(C(F)(F)F)cc1N(c1ccc(-c2ccc(N(c3cc(C(F)(F)F)ccc3C)c3cc(C(F)(F)F)ccc3C)cc2)cc1)c1cc(C(F)(F)F)ccc1C [4^+⋅]	4362 cm⁻¹	2519 cm⁻¹	8238 cm⁻¹			13 mM (≈ 10600 µg/mL)	0.53 V vs Cp2Fe^0/+	0.69 V vs Cp2Fe^0/+	0.16	1.54 10^−6 cm^2 · s^−1	rapid decay
